Measurements from patent publication US7276339B2 (H. Lundbeck A/S, priority 1998, dated 2007).
Non-standard residues stand in square brackets, D forms with d. Residues, ends and D or L forms follow the SMILES beside them. NMeF = CN[C@@H](Cc1ccccc1)C(=O)O

Legend:
[1] = molecular target: T1, rat NPFF2 receptor (Rattus norvegicus, UniProt Q9EQD2); assay: [125I]D-Tyr-NPFF radioligand binding, cloned rat NPFF2; conditions: Table 3; title HEK-293 cells (text: Cos-7); [125I]D-Tyr-NPFF; read-out: pKi ± SEM, rat NPFF2 (converted)
T1 construct: The full-length rat NPFF2 clone was amplified from rat spinal cord cDNA; expressed in transfected cells; host or cells: COS-7
Protocol: (§1) Transfected cells from culture flasks are scraped into 5 ml of 20 mM Tris-HCl, 5 mM EDTA, pH 7.5, and lysed by sonication. The cell lysates are centrifuged at 1000 rpm for 5 min. at 4° C., and the supernatant is centrifuged at 30,000×g for 20 min. at 4° C. The pellet is suspended in binding buffer (50 mM Tris-HCl, 60 mM NaCl, 1 mM MgCl, 33 μM EDTA, 33 μM EGTA at pH 7.4 supplemented with 0.2% BSA, 2 μg/ml aprotinin, and 20 μM bestatin). Optimal membrane suspension dilutions, defined as the protein concentration required to bind less than 10% of the added radioligand, are added to 96-well polpropylene microtiter plates containing ^3H-labeled compound, unlabeled compounds, and binding buffer to a final volume of 250 μl. In equilibrium saturation binding assays membrane preparations are incubated in the presence of increasing concentrations of [^3H]-labeled compound. The binding affinities of the different compounds are determined in equilibrium competition binding assays, using [^125I]-labeled compound in the presence of ten to twelve different concentrations of the displacing ligands. Competition assay: 50 pM radioligand, 10-12 points. Binding reaction mixtures are incubated for 2 hr at 25° C., and the reaction stopped by filtration through a double layer of GF filters treated with 0.1% polyethyleneimine, using a cell harvester. Wash buffer: 50 mM Tris-HCl, 0.1% BSA. Radioactivity may be measured by scintillation counting and data are analyzed by a computerized non-linear regression program. Non-specific binding is defined as the amount of radioactivity remaining after incubation of membrane protein in the presence of 1 μM final concentration […]. Protein concentration may be measured by the Bradford method using Bio-Rad Reagent, with bovine serum albumin as a standard.
(§2) Additional pharmacological evaluation was done using 293 human embryonic kidney cells (HEK-293 cells) transiently expressing the genes encoding the human NPFF1, NPFF2, and rat NPFF1 receptors, as well as Cos-7 cells expressing the rat NPFF2 receptors.

[2] = molecular target: T2, human NPFF1 receptor (Homo sapiens, UniProt Q9GZQ6); assay: [125I]D-Tyr-NPFF radioligand binding, HEK-293 cells expressing human NPFF1; conditions: Table 3, read-out: pKi ± SEM, human NPFF1 (converted)
T2 construct: To obtain a full-length hNPFF1 construct in the correct orientation; expressed in transfected cells; host or cells: HEK-293 (transient)
Protocol: as §1, §2

[3] = molecular target: T3, human NPFF2 receptor (Homo sapiens, UniProt Q9Y5X5); assay: [125I]D-Tyr-NPFF radioligand binding, HEK-293 cells expressing human NPFF2; conditions: Table 3; HEK-293 cells; [125I]D-Tyr-NPFF; read-out: pKi ± SEM, human NPFF2 (converted)
T3 construct: BO89, was determined to be a full length clone with no point mutations; expressed in transfected cells; host or cells: HEK-293 (transient)
Protocol: as §1, §2

[4] = molecular target: T4, rat NPFF1 receptor (Rattus norvegicus, UniProt Q9EP86); assay: [125I]D-Tyr-NPFF radioligand binding, HEK-293 cells expressing rat NPFF1; design: expressed in transfected cells; conditions: Table 3, read-out: pKi ± SEM, rat NPFF1 (converted)
Protocol: as §1, §2

[5] = 150 min. incubation; cited from earlier work
[6] = molecular target: T5, NPFF2 (NPFF-like) (Homo sapiens, UniProt Q9Y5X5); assay: Voltage-clamp electrophysiology, Xenopus oocytes injected with NPFF-like (NPFF2) and chimeric Gαq/z RNA; type: cell-based; conditions: 1 μM, holding potential −80 mV
T5 construct: linearized plasmids or PCR products containing the complete coding region of the genes; expressed in transfected cells; host or cells: Xenopus laevis oocytes injected with mRNA from ligation PCR products or linearized BO89
Protocol: For expression of NPFF2, mRNA transcripts were generated as described for NPFF1, using PCR products from ligation reactions or linearized DNA from BO89 as DNA templates. Oocytes were injected with 5-50 ng NPFF2 mRNA and incubated as previously described.
(§3) Oocytes were harvested from Xenopus laevis and injected with mRNA transcripts as previously described (Quick and Lester, 1994; Smith et al., 1997). […] Three to eight hours prior to recording, oocytes were injected with 500 pg Gαq/z mRNA in order to observe coupling to Ca^++ activated Cl^− currents. Dual electrode voltage clamp (Axon Instruments Inc.) was performed using 3 M KCl-filled glass microelectrodes having resistances of 1-2 Mohm. Unless otherwise specified, oocytes were voltage clamped at a holding potential of −80 mV. During recordings, oocytes were bathed in continuously flowing (1-3 ml/min) medium containing 96 mM NaCl, 2 mM KCl, 1.8 mM CaCl2, 1 mM MgCl2, and 5 mM HEPES, pH 7.5 (ND96). Drugs were applied either by local perfusion from a […] glass capillary tube fixed at a distance of 0.5 mm from the oocyte, or by switching from a series of gravity fed perfusion lines.
(§4) Heterologous expression of GPCRs in Xenopus oocytes has been widely used to determine the identity of signaling pathways activated by agonist stimulation (Gundersen et al., 1983; Takahashi et al., 1987). Activation of the phospholipase C (PLC) pathway is assayed by applying test compound in ND96 solution to oocytes previously injected with mRNA for the mammalian receptor and observing inward currents at a holding potential of −80 mV. The appearance of currents that reverse at −25 mV and display other properties of the Ca^++-activated Cl^− (chloride) channel is indicative of mammalian receptor-activation of PLC and release of IP3 and intracellular Ca^++.

[7] = molecular target: T6, NPFF1 (SNORF2) (Rattus norvegicus, UniProt Q9EP86); assay: Voltage-clamp electrophysiology, Xenopus oocytes injected with SNORF2 (NPFF1) and chimeric Gαq/z RNA; type: cell-based; conditions: 1 μM; oocytes with SNORF2 + Gαq/z; holding potential −80 mV
T6 construct: linearized plasmids or PCR products containing the complete coding region of the genes; expressed in transfected cells; host or cells: Xenopus laevis oocytes injected with synthetic RNA (T7 transcripts)
Protocol: as §3, §4

[8] = molecular target: rat spinal cord membrane receptor; assay: [125I]D-Tyr-NPFF radioligand binding, rat spinal cord membranes; conditions: competition of [125I]D-Tyr-NPFF binding; * = differs from NPFF1
Source text: The binding profile of rat NPFF1 was compared to that of rat spinal cord membranes. […] (See * Table 2).

[9] = molecular target: T1, rat NPFF2 receptor; assay: Functional activity at cloned rat NPFF2 in COS-7 cells; type: cell-based
[10] = molecular target: T4, rat NPFF1 receptor; assay: Functional activity at cloned rat NPFF1 in COS-7 cells; type: cell-based; design: expressed in transfected cells; host or cells: COS-7 (transient); conditions: COS-7 cells
[11] = molecular target: T7, human NPY Y1 receptor (Homo sapiens, UniProt P25929); conditions: cited from earlier work
T7 sequence (P25929 1-384): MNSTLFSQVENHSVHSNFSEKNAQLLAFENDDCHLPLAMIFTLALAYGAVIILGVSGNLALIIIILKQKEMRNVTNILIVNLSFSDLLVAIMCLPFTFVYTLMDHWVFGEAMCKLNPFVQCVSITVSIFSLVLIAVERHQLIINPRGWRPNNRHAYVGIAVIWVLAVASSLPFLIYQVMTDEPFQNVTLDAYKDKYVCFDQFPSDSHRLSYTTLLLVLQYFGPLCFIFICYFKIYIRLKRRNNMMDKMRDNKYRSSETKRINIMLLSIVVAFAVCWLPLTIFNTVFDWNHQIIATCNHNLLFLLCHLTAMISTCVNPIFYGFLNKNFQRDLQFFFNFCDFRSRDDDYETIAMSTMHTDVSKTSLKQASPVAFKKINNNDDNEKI

T1 sequence (Q9EQD2 whole entry): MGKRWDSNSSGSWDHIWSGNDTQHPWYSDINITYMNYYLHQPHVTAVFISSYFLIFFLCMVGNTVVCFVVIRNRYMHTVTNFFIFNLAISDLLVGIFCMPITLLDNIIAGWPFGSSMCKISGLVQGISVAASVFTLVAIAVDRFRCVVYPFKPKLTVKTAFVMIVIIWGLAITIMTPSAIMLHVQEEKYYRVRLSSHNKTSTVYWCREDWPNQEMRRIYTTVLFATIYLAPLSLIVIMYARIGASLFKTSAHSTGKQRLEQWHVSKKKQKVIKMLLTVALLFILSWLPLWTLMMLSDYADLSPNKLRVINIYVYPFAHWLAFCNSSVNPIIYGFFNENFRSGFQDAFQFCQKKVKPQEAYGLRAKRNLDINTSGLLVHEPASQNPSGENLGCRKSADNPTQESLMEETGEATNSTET
T3 sequence (Q9Y5X5 103-522): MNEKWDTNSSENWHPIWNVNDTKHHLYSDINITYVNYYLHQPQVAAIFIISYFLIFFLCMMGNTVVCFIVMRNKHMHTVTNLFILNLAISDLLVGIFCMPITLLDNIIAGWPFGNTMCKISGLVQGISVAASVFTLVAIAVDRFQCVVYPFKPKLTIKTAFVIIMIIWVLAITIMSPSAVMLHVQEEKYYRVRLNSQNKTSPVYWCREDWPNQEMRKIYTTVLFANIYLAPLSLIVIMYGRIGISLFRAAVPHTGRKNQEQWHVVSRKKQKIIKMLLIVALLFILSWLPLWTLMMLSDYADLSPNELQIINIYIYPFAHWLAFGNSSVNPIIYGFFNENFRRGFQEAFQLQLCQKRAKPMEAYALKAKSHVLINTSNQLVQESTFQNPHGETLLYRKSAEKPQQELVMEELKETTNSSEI
T2 sequence (Q9GZQ6 whole entry): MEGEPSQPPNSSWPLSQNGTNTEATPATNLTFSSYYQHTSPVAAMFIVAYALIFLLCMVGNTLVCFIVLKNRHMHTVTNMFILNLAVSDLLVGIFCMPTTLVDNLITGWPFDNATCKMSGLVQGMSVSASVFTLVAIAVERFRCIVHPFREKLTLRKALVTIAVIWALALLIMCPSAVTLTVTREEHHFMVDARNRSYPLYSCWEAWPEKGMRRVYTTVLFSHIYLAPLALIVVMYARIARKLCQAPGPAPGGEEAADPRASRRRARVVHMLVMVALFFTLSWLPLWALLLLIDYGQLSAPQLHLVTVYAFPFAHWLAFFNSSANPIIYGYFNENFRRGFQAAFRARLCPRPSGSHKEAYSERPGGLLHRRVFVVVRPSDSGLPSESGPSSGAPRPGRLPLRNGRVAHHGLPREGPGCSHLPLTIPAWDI
T4 sequence (Q9EP86 whole entry): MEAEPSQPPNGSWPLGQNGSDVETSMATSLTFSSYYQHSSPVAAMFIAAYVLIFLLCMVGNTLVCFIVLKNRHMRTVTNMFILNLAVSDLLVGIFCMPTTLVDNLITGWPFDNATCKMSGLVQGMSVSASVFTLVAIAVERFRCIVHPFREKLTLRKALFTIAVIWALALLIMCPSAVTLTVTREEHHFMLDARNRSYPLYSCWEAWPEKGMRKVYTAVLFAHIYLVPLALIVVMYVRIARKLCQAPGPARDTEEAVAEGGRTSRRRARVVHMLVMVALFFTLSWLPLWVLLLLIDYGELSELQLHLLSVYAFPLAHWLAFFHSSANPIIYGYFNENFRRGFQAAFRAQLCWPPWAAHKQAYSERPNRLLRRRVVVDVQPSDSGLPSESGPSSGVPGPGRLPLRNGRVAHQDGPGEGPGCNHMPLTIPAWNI
T5 sequence (Q9Y5X5 103-522): as the sequence (Q9Y5X5 103-522) above
T6 sequence (Q9EP86 whole entry): as the sequence (Q9EP86 whole entry) above

Molecule | Ki [1] | Ki [2] | Ki [3] | Ki [4] | stable after incubation with rat spinal cord membranes [5] | inward current response [6] | inward current response [7] | pKi for rat spinal cord membrane receptor binding, MEAN [8] | EC50 [9] | Maximum Effect (% NPFF), rat NPFF2 [9] | Maximum Effect (% NPFF), rat NPFF1 [10] | EC50 ([10]; read-out: EC50, rat NPFF1) | binding affinity, human NPY Y1 receptor [11]
CSCC[C@@H](NC(=O)[C@@H](N)Cc1ccccc1)C(=O)N[C@@H](CCCNC(=N)N)C(=O)N[C@@H](Cc1ccccc1)C(N)=O [D-Met-FMRF amide] | 631 nM | 251 nM | 398 nM | 631 nM | – | – | – | – | – | – | – | – | –
CC(C)C[C@H](NC(=O)[C@H](N)Cc1ccc(O)cc1)C(=O)N(C)[C@@H](Cc1ccccc1)C(=O)N[C@@H](CCC(N)=O)C(=O)N1CCC[C@H]1C(=O)N[C@@H](CCC(N)=O)C(=O)N[C@@H](CCCN=C(N)N)C(=O)N[C@@H](Cc1ccccc1)C(N)=O [(D-Tyr^1-(NMe)Phe^3)NPFF] (H-[dY]L[NMeF]QPQRF-NH2) | 2 nM | 7.94 nM | 3.16 nM | 1.58 nM | 90% | – | – | – | – | – | – | – | –
H-AGEGLSSPFWSLAAPQRF-NH2 [A18Fa] | 6.31 nM | 63.1 nM | 1.26 nM | 31.6 nM | – | activated similar inward currents | robust inward currents | *9.000 | – | – | – | – | –
NC(N)=NCCC[C@H](NC(=O)C(c1ccccc1)c1ccccc1)C(=O)NCc1ccc(O)cc1 [BIBP3435] | – | – | – | – | – | – | – | – | 5420 nM | 71 % NPFF | 0 % NPFF | > 10000 nM | > 10,000 nM
